Test results taken from ChEMBL document CHEMBL1909046, “DrugMatrix in vitro pharmacology data”.

What was measured:
[1] = DRUGMATRIX: Sodium/nucleoside co-transporter radioligand binding (ligand: nitrobenzylthioinosine); assay type: cell membranes, Cavia porcellus, Dunkin-Hartley, Cerebral cortex, Membrane; settings: Not Active = under 50% inhibition at 10 µM
[2] = target: T1, Alpha-2C adrenergic receptor (Homo sapiens, UniProt P18825); test: DRUGMATRIX: Adrenergic Alpha-2C radioligand binding (ligand: [3H] MK-912); assay type: cell membranes, Sf9, Membrane; settings: sf9
T1 sequence (P18825 whole entry): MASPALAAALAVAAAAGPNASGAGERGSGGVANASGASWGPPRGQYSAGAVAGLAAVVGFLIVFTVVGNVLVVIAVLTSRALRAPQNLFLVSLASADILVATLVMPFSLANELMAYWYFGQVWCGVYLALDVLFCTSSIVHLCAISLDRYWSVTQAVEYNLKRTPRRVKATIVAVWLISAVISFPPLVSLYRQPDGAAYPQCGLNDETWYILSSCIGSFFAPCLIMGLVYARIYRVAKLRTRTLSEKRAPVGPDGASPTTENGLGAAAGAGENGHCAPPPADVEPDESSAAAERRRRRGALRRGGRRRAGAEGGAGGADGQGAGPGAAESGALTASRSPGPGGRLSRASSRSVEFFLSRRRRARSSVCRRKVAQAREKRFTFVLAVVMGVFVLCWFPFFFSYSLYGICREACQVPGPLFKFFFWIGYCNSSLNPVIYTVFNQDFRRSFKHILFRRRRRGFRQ

[3] = DRUGMATRIX: Atrial Natriuretic Factor (ANF) radioligand binding (ligand: [125I] ANF (rat)); assay type: cell membranes, Cavia porcellus, Dunkin-Hartley, Adrenal gland, Membrane; settings: Not Active = under 50% inhibition at 10 µM
[4] = DRUGMATRIX: Calcium Channel Type L, Phenylalkylamine radioligand binding (ligand: [3H] (-)-Desmethoxyverapamil (D-888)); assay type: cell membranes, Rattus norvegicus, Wistar, Brain, Membrane; settings: Not Active = under 50% inhibition at 10 µM
Mu-type opioid receptor = Mu-type opioid receptor (Homo sapiens, UniProt P35372); test: DRUGMATRIX: Opiate mu (OP3, MOP) radioligand binding (ligand: [3H] Diprenorphine); assay type: cell membranes, CHO-K1, Membrane; settings: cho-k1; Not Active = under 50% inhibition at 10 µM
[5] = target: Platelet-activating factor receptor (Homo sapiens, UniProt P25105); assay type: tissue-based; also: in other assays of this panel Not Active means under 50% inhibition at 10 µM
Neutrophil elastase = target: T2, Neutrophil elastase (Homo sapiens, UniProt P08246); assay type: tissue-based;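 also: inhibition of neutrophil elastase enzyme activity, measured with a p-nitroanilide-linked peptide substrate; in other assays of this panel Not Active means under 50% inhibition at 10 µM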
T2 sequence (P08246 whole entry): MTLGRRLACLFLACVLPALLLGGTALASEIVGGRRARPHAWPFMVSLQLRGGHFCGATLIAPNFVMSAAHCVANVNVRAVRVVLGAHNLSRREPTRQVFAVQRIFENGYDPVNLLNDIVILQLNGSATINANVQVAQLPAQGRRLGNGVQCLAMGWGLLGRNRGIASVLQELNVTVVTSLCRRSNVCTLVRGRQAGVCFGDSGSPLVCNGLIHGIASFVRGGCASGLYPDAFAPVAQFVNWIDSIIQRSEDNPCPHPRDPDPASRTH

[6] = target: 5-hydroxytryptamine receptor 1B (Rattus norvegicus, UniProt P28564); assay type: cell membranes, Wistar, Cerebral cortex, Membrane; also: in other assays of this panel Not Active means under 50% inhibition at 10 µM
Adenosine receptor A1 = target: T3, Adenosine receptor A1 (Homo sapiens, UniProt P30542); assay type: cell membranes, Membrane; settings: cho;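 also: radioligand binding assay at the adenosine A1 receptor, with DPCPX serving as the labelled ligand; in other assays of this panel Not Active means under 50% inhibition at 10 µM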
T3 sequence (P30542 whole entry): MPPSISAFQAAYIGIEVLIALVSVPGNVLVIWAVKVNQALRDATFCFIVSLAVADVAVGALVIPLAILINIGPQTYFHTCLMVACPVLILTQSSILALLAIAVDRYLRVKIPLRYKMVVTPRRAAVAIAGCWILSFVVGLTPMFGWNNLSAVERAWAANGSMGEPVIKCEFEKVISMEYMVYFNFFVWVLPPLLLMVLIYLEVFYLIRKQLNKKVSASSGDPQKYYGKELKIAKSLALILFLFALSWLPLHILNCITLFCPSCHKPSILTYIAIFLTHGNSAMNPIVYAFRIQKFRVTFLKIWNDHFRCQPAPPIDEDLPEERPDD

Sequence of Mu-type opioid receptor (P35372 whole entry): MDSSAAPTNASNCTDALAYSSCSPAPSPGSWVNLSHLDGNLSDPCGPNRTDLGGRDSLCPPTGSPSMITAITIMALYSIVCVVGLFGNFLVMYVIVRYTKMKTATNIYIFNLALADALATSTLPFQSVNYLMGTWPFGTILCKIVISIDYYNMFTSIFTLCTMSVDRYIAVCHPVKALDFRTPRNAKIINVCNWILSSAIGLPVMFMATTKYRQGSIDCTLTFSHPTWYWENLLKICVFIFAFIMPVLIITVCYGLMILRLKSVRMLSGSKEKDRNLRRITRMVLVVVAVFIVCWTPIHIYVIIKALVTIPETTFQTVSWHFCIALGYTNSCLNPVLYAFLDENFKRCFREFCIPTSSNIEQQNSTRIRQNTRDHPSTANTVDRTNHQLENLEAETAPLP
Sequence of 5-hydroxytryptamine receptor 1B (P28564 whole entry): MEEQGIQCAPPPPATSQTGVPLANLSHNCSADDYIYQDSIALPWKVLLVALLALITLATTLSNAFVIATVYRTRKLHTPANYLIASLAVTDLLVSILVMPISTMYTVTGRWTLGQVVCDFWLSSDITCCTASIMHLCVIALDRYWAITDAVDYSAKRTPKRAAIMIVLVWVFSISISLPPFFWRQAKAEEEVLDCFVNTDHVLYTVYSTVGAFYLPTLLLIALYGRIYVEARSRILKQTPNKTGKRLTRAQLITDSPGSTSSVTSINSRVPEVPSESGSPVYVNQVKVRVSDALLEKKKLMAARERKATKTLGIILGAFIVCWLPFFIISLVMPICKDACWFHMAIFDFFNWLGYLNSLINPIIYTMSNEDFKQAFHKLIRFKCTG
Sequence of Platelet-activating factor receptor (P25105 whole entry): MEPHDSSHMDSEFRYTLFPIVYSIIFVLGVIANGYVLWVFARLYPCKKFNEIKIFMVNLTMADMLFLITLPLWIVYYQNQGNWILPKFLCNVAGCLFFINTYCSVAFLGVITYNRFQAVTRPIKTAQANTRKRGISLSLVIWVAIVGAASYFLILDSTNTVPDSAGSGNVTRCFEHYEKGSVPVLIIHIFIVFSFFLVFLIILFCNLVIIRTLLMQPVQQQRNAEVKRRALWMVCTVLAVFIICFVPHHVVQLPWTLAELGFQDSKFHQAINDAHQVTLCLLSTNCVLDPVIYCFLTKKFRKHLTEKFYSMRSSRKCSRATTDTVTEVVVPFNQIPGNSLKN

C[C@]1(Cn2ccnn2)[C@H](C(=O)O)N2C(=O)C[C@H]2S1(=O)=O [TAZOBACTAM]
Not Active: IC50 [1] | Ki [1] | IC50 [2] | IC50 [3] | Ki [3] | IC50 [4] | Ki [4] | IC50 (Mu-type opioid receptor) | IC50 [5] | IC50 (Neutrophil elastase) | IC50 [6] | IC50 (Adenosine receptor A1)

[Cl-].[Cl-].[Zn+2] [ZINC CHLORIDE]
Not Active: IC50 [1] | Ki [1] | IC50 [2] | IC50 [3] | Ki [3] | IC50 [4] | Ki [4] | IC50 (Mu-type opioid receptor) | IC50 [5] | IC50 (Neutrophil elastase) | IC50 [6] | IC50 (Adenosine receptor A1)

CN1C(C(=O)Nc2ccccn2)=C(O)c2sccc2S1(=O)=O [TENOXICAM]
Not Active: IC50 [1] | Ki [1] | IC50 [2] | IC50 [3] | Ki [3] | IC50 [4] | Ki [4] | IC50 (Mu-type opioid receptor) | IC50 [5] | IC50 (Neutrophil elastase) | IC50 [6] | IC50 (Adenosine receptor A1)

CC(=O)N[C@@H]1[C@H](Oc2c3cc4cc2Oc2ccc(cc2Cl)[C@@H](O[C@@H]2O[C@@H](CO)[C@@H](O)[C@H](O)[C@@H]2NC(C)=O)[C@@H]2NC(=O)[C@H](NC(=O)[C@@H]4NC(=O)[C@H]4NC(=O)[C@@H](Cc5ccc(c(Cl)c5)O3)NC(=O)[C@H](N)c3ccc(O)c(c3)Oc3cc(O)cc4c3)c3ccc(O)c(c3)-c3c(O[C@H]4O[C@H](CO)[C@@H](O)[C@@H](O)[C@@H]4O)cc(O)cc3[C@@H](C(=O)O)NC2=O)O[C@@H](CO)[C@@H](O)[C@@H]1O
Not Active: IC50 [1] | Ki [1] | IC50 [2] | IC50 [3] | Ki [3] | IC50 [4] | Ki [4] | IC50 (Mu-type opioid receptor) | IC50 [5] | IC50 (Neutrophil elastase) | IC50 [6] | IC50 (Adenosine receptor A1)

COCCCOc1ccnc(C[S+]([O-])c2nc3ccccc3[nH]2)c1C (stereo not drawn) [RABEPRAZOLE]
Not Active: IC50 [1] | Ki [1] | IC50 [2] | IC50 [3] | Ki [3] | IC50 [4] | Ki [4] | IC50 (Mu-type opioid receptor) | IC50 [5] | IC50 (Neutrophil elastase) | IC50 [6] | IC50 (Adenosine receptor A1)

CO[C@H]1/C=C/O[C@@]2(C)Oc3c(C)c(O)c4c(c3C2=O)C2=NC3(CCN(CC(C)C)CC3)NC2=C(NC(=O)/C(C)=C\C=C\[C@H](C)[C@H](O)[C@@H](C)[C@@H](O)[C@@H](C)[C@H](OC(C)=O)[C@@H]1C)C4=O [RIFABUTIN]
Not Active: IC50 [1] | Ki [1] | IC50 [2] | IC50 [3] | Ki [3] | IC50 [4] | Ki [4] | IC50 (Mu-type opioid receptor) | IC50 [5] | IC50 (Neutrophil elastase) | IC50 [6] | IC50 (Adenosine receptor A1)

CNC(=C[N+](=O)[O-])NCCSCc1ccc(CN(C)C)o1 [RANITIDINE]
Not Active: IC50 [1] | Ki [1] | IC50 [2] | IC50 [3] | Ki [3] | IC50 [4] | Ki [4] | IC50 (Mu-type opioid receptor) | IC50 [5] | IC50 (Neutrophil elastase) | IC50 [6] | IC50 (Adenosine receptor A1)

CC1=C(CC(=O)O)c2cc(F)ccc2/C1=C\c1ccc([S+](C)[O-])cc1 (stereo not drawn)
Not Active: IC50 [1] | Ki [1] | IC50 [2] | IC50 [3] | Ki [3] | IC50 [4] | Ki [4] | IC50 (Mu-type opioid receptor) | IC50 [5] | IC50 (Neutrophil elastase) | IC50 [6] | IC50 (Adenosine receptor A1)

C[C@@H](N)[C@H]1CC[C@H](C(=O)Nc2ccncc2)CC1 [Y-27632]
Not Active: IC50 [1] | Ki [1] | IC50 [2] | IC50 [3] | Ki [3] | IC50 [4] | Ki [4] | IC50 (Mu-type opioid receptor) | IC50 [5] | IC50 (Neutrophil elastase) | IC50 [6] | IC50 (Adenosine receptor A1)
